# Laboratory results reported in patent US20260265304A1, “PEPTIDE INHIBITORS OF FOCAL ADHESION KINASE ACTIVITY AND USES THEREOF” (Arizona Board of Regents on Behalf of the University of …, priority 2019, published 2026).
# Like-named read-outs stand apart in the source and are kept apart here. Positions of bridges follow the written chain, without caps; N, C: chain ends. Non-standard residues stand in square brackets, D forms with d. Residues, ends and D or L forms follow the SMILES beside them. *: point of attachment. Myristoyl = CCCCCCCCCCCCCC(=O)*; R8 = C=CCCCCCC[C@@](C)(N)C(=O)O; R5 = C=CCCC[C@@](C)(N)C(=O)O; S5 = C=CCCC[C@](C)(N)C(=O)O
# T1: trypsin (Bos taurus, UniProt P00760)
# T1 construct: purchased ThermoFisher
# T1 sequence (P00760 24-246): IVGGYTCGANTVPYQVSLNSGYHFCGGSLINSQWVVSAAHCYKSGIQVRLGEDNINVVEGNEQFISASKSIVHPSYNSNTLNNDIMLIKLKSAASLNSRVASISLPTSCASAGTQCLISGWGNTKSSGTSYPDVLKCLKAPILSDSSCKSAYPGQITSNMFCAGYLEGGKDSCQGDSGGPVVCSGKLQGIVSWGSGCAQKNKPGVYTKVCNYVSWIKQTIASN
# T2: FAK FAT domain (biotinylated Avitag-FAT protein) (Homo sapiens, UniProt Q05397)
# T2 construct: biotinylated Avitag-FAT protein was diluted in running buffer
# T2 sequence (Q05397 914-1045 limits assumed): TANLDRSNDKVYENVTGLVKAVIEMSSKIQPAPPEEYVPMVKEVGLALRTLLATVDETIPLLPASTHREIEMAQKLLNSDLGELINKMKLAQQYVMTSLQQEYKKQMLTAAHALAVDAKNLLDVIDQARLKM
# T3: FAK FAT domain (paxillin-FAT binding) (Homo sapiens, UniProt Q05397)
# T3 construct: FP Buffer containing 20 μM FAT and 0.1 μM TAMRA-LD2
# T3 sequence (Q05397 914-1045 limits assumed): T2 sequence (Q05397 914-1045 limits assumed)
# T4: biotinylated Avitag-FAT protein (UniProt Q05397 919-1052, limits assumed, biotinylated (Avitag))
# T4 construct: domain: FAT; Immobilised on a streptavidin sensor for SPR; also called WT FAT; FAT domain of FAK; not shown: Avitag
# T4 sequence (looked up): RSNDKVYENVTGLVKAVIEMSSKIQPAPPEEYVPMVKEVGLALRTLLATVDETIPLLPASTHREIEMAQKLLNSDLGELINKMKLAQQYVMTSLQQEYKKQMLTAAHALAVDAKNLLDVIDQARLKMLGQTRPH
# B1: 1920 (peptide)
# peptide: Ac-SLGSNL[R8]ELDRLL[S5]ELNAVQH-NH2
# modifications: staple 7-14
# SMILES: CC(=O)N[C@@H](CO)C(=O)N[C@@H](CC(C)C)C(=O)NCC(=O)N[C@@H](CO)C(=O)N[C@@H](CC(N)=O)C(=O)N[C@@H](CC(C)C)C(=O)N[C@]1(C)CCCCCCC=CCCC[C@@](C)(C(=O)N[C@@H](CCC(=O)O)C(=O)N[C@@H](CC(C)C)C(=O)N[C@@H](CC(N)=O)C(=O)N[C@@H](C)C(=O)N[C@H](C(=O)N[C@@H](CCC(N)=O)C(=O)N[C@@H](Cc2c[nH]cn2)C(N)=O)C(C)C)NC(=O)[C@H](CC(C)C)NC(=O)[C@H](CC(C)C)NC(=O)[C@H](CCCNC(=N)N)NC(=O)[C@H](CC(=O)O)NC(=O)[C@H](CC(C)C)NC(=O)[C@H](CCC(=O)O)NC1=O
# B2: 2014 (peptide)
# peptide: Ac-NL[R8]EEDRLL[S5]EEN-NH2
# modifications: staple 3-10
# SMILES: CC(=O)N[C@@H](CC(N)=O)C(=O)N[C@@H](CC(C)C)C(=O)N[C@]1(C)CCCCCCC=CCCC[C@@](C)(C(=O)N[C@@H](CCC(=O)O)C(=O)N[C@@H](CCC(=O)O)C(=O)N[C@@H](CC(N)=O)C(N)=O)NC(=O)[C@H](CC(C)C)NC(=O)[C@H](CC(C)C)NC(=O)[C@H](CCCNC(=N)N)NC(=O)[C@H](CC(=O)O)NC(=O)[C@H](CCC(=O)O)NC(=O)[C@H](CCC(=O)O)NC1=O
# notes: non-active molecule
# Tests used:
# trypsin = target: T1, trypsin; assay: In vitro trypsin digest assay (trypsin-agarose beads, LC-MS); type: in vitro ADME; conditions: trypsin-agarose beads in physiological buffer, read-out: t1/2 in trypsin digest (protease resistance) (converted)
# Description: Assays were performed using trypsin-agarose beads (ThermoFisher) and measurement of peptide concentration using LC-MS. Peptide half-lives were calculated using GraphPad Prism software.
# Trypsin-agarose beads were used to test the potential cleavage of peptides in a physiological buffer and LC-MS was used as the analytical method to determine peptide concentration.
# [1] = target: T2, FAK FAT domain (biotinylated Avitag-FAT protein); assay: Surface plasmon resonance (SPR) binding to immobilised FAT protein
# Description: SPR binding studies were performed on a ForteBio Pioneer FE SPR system. In brief, a SADH Streptavidin in Dextran Hydrogel biosensor (ForteBio) was docked onto the flow cell and preconditioned with two injections of 10 mM NaOH, 1 M NaCl for 1 min at 50 μL/min. […] Empty channel 2 served as the reference control. After achieving a stable baseline, a concentration series (200 μM-0.01 μM) of peptide was prepared in final running buffer (100 mM Tris-HCl, 200 mM NaCl, 0.05% Tween-20, 5% DMSO) and injected using the OneStep gradient injection method at a flow rate of 75 μL/min. […] Raw SPR data were appropriately processed in Qdat software (ForteBio) by normalizing the baseline prior to injection, aligning the channels, subtraction of the reference channel, and blank subtraction. Kinetic data were fitted to a pseudo-first order 1:1 interaction binding model using to calculate KD. In addition, a steady-state model and Req data points were used to validate the binding affinity. Visual inspection of the SPR sensograms was performed to verify appropriate model fitting, lack of mass transport effects, return to baseline, and lack of irregular kinetics.
# [2] = target: T3, FAK FAT domain (paxillin-FAT binding); assay: Competition fluorescence polarization (FP) assay, inhibition of TAMRA-LD2 binding to FAT; conditions: read-out: FP Ki
# Description: The FP assay buffer used was 20 mM Tris, 200 mM NaCl, 0.05% β-me, 0.1% Triton X-100, 5% glycerol, and 1× Halt protease inhibitor cocktail. […] Bodipy TMR FP optical module (2100-4100) was used as the mirror.
# Wells with no FAT were used as a baseline value which was subtracted from the raw values to produce ΔmP values. The plate was read at every hour for four hours to test for time differences in IC50. The titration data was processed through GraphPad Prism to produce a dose response curve and a calculated IC50 with standard error (SE). A four-parameter dose-response inhibition model was utilized and the bottom fit was constrained to the lower plateau of the curve. Ki was determined from the following calculation:
# P0 is the concentration of free protein and KD is calculated from the saturation curve. 150 is calculated by the following equation:
# where PT is the total protein concentration, LT is the total labeled-ligand concentration, P0 is the positive root of P0^2+(KD+LT)*P0−PT, PL0=P−P0, PL50=PL0/2, L0=LT-PL0, and L50=LT-PL50.
# [3] = system: SK-MEL-103 melanoma cells; assay: 3D Matrigel-on-top proliferation assay; type: cell-based; conditions: SK-MEL-103 melanoma cells, 3D Matrigel-on-top
# Description: (§1) B. Competition FP experiment with 1907 showing inhibition of TAMRA-LD2 binding to FAT. C. SPR binding and selectivity analysis using WT FAT and Mutant FAT (L994E, 1936A) at the helix-protein interface. D. Flow cytometry analysis of Rhodamine-1907 (10 μM) cellular uptake in MDA-MB-453 breast cancer cells. E. Boyden-chamber invasion assays in SK-MEL-103 melanoma cells. F. 3D Matrigel-on-top proliferation assays in SK-MEL-103 melanoma cells.
# B. 3D structure of negative control molecule (UACC-2020). C. 3D Matrigel-on-top cell proliferation data of stapled peptides in SK-MEL-103 melanoma cells.
# A negative control myristoylated peptide (2020) was designed and synthesized based on non-active molecule 2014. Experiments were conducted to test the efficacy of these peptides in 3D proliferation assays using SK-MEL-103 melanoma cells. […] Furthermore, 2012 had no effects on the proliferation of normal HUVEC cells (IC50=NA) (FIG. 7).
# [4] = target: T2, FAK FAT domain (biotinylated Avitag-FAT protein); assay: Surface plasmon resonance (SPR) binding to immobilised FAT protein; conditions: two-site binding model
# [5] = system: MDA-MB-453 breast cancer cells; assay: Flow cytometry-based cell permeability assay; conditions: MDA-MB-453 cells, 10 μM, compared to Rhodamine only control
# Description: as §1
# To further evaluate the activity of 1907, experiments were conducted that tested the peptide in a flow cytometry-based cell permeability assay. […] Experiments were also conducted to test the cellular efficacy in SK-MEL-103 melanoma cells.
# Flow cytometry assays performed on the Canto II flow cytometer (BD Biosciences) were utilized to measure cellular uptake of TAMRA-tagged peptides. In brief, the instrument was properly gated using cells treated with TAMRA-only as a positive control. Also, cells treated with untagged peptide were used as a negative control to rule out non-specific signal. Cells were treated with TAMRA-tagged peptides for a duration of 2 h-48 h to measure cellular uptake. Permeability of peptide was reported as % positivity relative to TAMRA positive control and mean fluorescence intensity (MFI).
# [6] = target: T4, biotinylated Avitag-FAT protein; assay: SPR, biotinylated Avitag-FAT immobilised
# Description: SPR binding studies were performed on a ForteBio Pioneer FE SPR system. In brief, a SADH Streptavidin in Dextran Hydrogel biosensor (ForteBio) was docked onto the flow cell and preconditioned with two injections of 10 mM NaOH, 1 M NaCl for 1 min at 50 μL/min. […] Empty channel 2 served as the reference control. After achieving a stable baseline, a concentration series (200 μM-0.01 μM) of peptide was prepared in final running buffer (100 mM Tris-HCl, 200 mM NaCl, 0.05% Tween-20, 5% DMSO) and injected using the OneStep gradient injection method at a flow rate of 75 μL/min. 3% sucrose was utilized as a bulk standard control for OneStep injection and a DMSO calibration curve was performed using a concentration range of 3.5% to 6.5% DMSO. Raw SPR data were appropriately processed in Qdat software (ForteBio) by normalizing the baseline prior to injection, aligning the channels, subtraction of the reference channel, and blank subtraction. Kinetic data were fitted to a pseudo-first order 1:1 interaction binding model using to calculate KD. In addition, a steady-state model and Req data points were used to validate the binding affinity. Visual inspection of the SPR sensograms was performed to verify appropriate model fitting, lack of mass transport effects, return to baseline, and lack of irregular kinetics.
molecule,measurement,setting,value
"CC(=O)N[C@@H](CC(N)=O)C(=O)N[C@@H](CC(C)C)C(=O)N[C@@H](CO)C(=O)N[C@@H](CCC(=O)O)C(=O)N[C@@H](CC(C)C)C(=O)N[C@@H](CC(=O)O)C(=O)N[C@@H](CCCNC(=N)N)C(=O)N[C@@H](CC(C)C)C(=O)N[C@@H](CC(C)C)C(=O)N[C@@H](CC(C)C)C(=O)N[C@@H](CCC(=O)O)C(=O)N[C@@H](CC(C)C)C(=O)N[C@@H](CC(N)=O)C(N)=O [Peptide 1967, reference compound]",half-life,trypsin,41.4 min
"CCCCCCCCCCCCCC(=O)N[C@@H](CC(N)=O)C(=O)N[C@@H](CC(C)C)C(=O)N[C@]1(C)CCCCCCC=CCCC[C@@](C)(C(=O)N[C@@H](CCC(=O)O)C(=O)N[C@@H](CCC(=O)O)C(=O)N[C@@H](CC(N)=O)C(N)=O)NC(=O)[C@H](CC(C)C)NC(=O)[C@H](CC(C)C)NC(=O)[C@H](CCCNC(=N)N)NC(=O)[C@H](CC(=O)O)NC(=O)[C@H](CCC(=O)O)NC(=O)[C@H](CCC(=O)O)NC1=O [Peptide 2020, Myristoyl-NLR8EEDRLLS5EEN-NH2] (Myristoyl-NL[R8]EEDRLL[S5]EEN-NH2; staple 3-10)",Kd,"[1]; FAT protein immobilised, peptide 200 μM-0.01 μM, 1:1 binding model, read-out: SPR KD",> 200 µM
same,Ki,[2],> 1250 µM
same,3D proliferation IC50,[3],no effect
"CC(=O)N[C@@H](CC(N)=O)C(=O)N[C@@H](CC(C)C)C(=O)N[C@]1(C)CCCCCCC=CCCC[C@@](C)(C(=O)N[C@@H](CCC(=O)O)C(=O)N[C@@H](CC(C)C)C(=O)N[C@@H](CC(N)=O)C(N)=O)NC(=O)[C@H](CC(C)C)NC(=O)[C@H](CC(C)C)NC(=O)[C@H](CCCCN)NC(=O)[C@H](CC(=O)O)NC(=O)[C@H](CC(C)C)NC(=O)[C@H](CCC(=O)O)NC1=O [Peptide 2028, Ac-NLR8ELDKLLS5ELN-NH2] (Ac-NL[R8]ELDKLL[S5]ELN-NH2; staple 3-10)",Kd,"[4]; SPR KD (1), site (1)",1.36 µM
same,Kd,"[4]; read-out: SPR KD (2), site (2)",10.9 µM
"CCN(CC)c1ccc2c(-c3ccccc3C(=O)NCCC(=O)N[C@@H](CC(N)=O)C(=O)N[C@@H](CC(C)C)C(=O)N[C@]3(C)CCCCCCC=CCCC[C@@](C)(C(=O)N[C@@H](CCC(=O)O)C(=O)N[C@@H](CC(C)C)C(=O)N[C@@H](CC(N)=O)C(N)=O)NC(=O)[C@H](CC(C)C)NC(=O)[C@H](CC(C)C)NC(=O)[C@H](CCCNC(=N)N)NC(=O)[C@H](CC(=O)O)NC(=O)[C@H](CC(C)C)NC(=O)[C@H](CCC(=O)O)NC3=O)c3ccc(=[N+](CC)CC)cc-3oc2c1 [Peptide 2016, RhoB-1907]",cellular uptake / crossing of the cell membrane,[5],successfully crossed the cell membrane
CC(=O)N[C@@H](CC(N)=O)C(=O)N[C@@H](CC(C)C)C(=O)N[C@@H](CO)C(=O)N[C@@H](CCC(=O)O)C(=O)N[C@@H](CC(C)C)C(=O)N[C@@H](CC(=O)O)C(=O)N[C@@H](CCCNC(=N)N)C(=O)N[C@@H](CC(C)C)C(=O)N[C@]1(C)CCCC=CCCC[C@@](C)(C(=O)N[C@@H](CC(N)=O)C(N)=O)NC(=O)[C@H](CCC(=O)O)NC(=O)[C@H](CC(C)C)NC1=O [Peptide 1921] (Ac-NLSELDRL[R5]LE[S5]N-NH2; staple 9-12),"binding and inhibitory properties (SPR/FP) in words, compared to 1907",[1]; SAR discussion of SPR and FP data,did not show much activity compared to 1907
same,Ki,[2],492 µM
Ac-[R8]ELDRLL[S5]-NH2 (staple 1-8) [2011],Kd,[6],> 200 µM
B1,Kd,[6],6.95 µM
B2,Kd,[6],> 200 µM
